Measured values as given in ChEMBL document CHEMBL1909046, “DrugMatrix in vitro pharmacology data”.

Columns and labels:
Adenosine receptor A2a = Adenosine receptor A2a (Homo sapiens, UniProt P29274); test: DRUGMATRIX: Adenosine A2A radioligand binding (ligand: […]); type: cell membranes, HEK293, Membrane; conditions: Not Active = under 50% inhibition at 10 µM
[1] = biological target: T1, Alpha-2A adrenergic receptor (Homo sapiens, UniProt P08913); type: cell membranes, Sf9, Membrane; also: in other assays of this panel Not Active means under 50% inhibition at 10 µM
T1 sequence (P08913 whole entry): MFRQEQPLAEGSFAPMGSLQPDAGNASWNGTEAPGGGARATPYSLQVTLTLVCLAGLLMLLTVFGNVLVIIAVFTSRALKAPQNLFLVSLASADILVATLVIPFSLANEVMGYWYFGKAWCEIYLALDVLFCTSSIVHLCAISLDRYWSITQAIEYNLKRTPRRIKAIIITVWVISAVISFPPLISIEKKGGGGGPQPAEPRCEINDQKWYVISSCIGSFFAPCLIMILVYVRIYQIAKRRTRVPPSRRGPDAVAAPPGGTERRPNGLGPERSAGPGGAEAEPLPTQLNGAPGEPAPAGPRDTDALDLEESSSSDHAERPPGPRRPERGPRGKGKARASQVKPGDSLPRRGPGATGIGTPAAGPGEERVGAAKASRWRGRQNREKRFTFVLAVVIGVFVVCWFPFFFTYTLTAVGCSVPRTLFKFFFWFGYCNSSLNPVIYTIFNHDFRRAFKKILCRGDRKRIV

[2] = DRUGMATRIX: Platelet-Derived Growth Factor (PDGF) radioligand binding (ligand: [125I] PDGF); type: cell-based; conditions: nih3t3; Not Active = under 50% inhibition at 10 µM
Acetylcholinesterase = Acetylcholinesterase (Homo sapiens, UniProt P22303); test: DRUGMATRIX: Acetylcholinesterase enzyme inhibition (substrate: acetylthiocholine); type: cell-based, HEK293; conditions: Not Active = under 50% inhibition at 10 µM
Chain of Acetylcholinesterase (P22303 whole entry): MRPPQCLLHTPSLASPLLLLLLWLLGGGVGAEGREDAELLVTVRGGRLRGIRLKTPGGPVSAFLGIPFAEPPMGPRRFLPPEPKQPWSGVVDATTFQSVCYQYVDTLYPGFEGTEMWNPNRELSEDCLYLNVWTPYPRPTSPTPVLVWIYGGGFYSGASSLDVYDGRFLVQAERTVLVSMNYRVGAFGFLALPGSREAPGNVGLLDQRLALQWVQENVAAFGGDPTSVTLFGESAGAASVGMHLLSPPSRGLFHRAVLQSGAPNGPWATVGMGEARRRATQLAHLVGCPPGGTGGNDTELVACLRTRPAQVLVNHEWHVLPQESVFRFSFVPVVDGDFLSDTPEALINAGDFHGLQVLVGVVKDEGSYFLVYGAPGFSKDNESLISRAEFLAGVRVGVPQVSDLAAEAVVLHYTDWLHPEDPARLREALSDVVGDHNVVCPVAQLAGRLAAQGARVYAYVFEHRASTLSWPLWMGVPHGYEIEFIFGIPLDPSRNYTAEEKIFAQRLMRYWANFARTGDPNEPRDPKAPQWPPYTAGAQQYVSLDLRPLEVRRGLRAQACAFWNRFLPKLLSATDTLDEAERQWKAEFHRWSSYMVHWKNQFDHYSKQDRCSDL

Cytochrome P450 2A6 = biological target: T2, Cytochrome P450 2A6 (Homo sapiens, UniProt P11509); conditions: bti-tn-5b1-4; also: in other assays of this panel Not Active means under 50% inhibition at 10 µM
T2 sequence (P11509 whole entry): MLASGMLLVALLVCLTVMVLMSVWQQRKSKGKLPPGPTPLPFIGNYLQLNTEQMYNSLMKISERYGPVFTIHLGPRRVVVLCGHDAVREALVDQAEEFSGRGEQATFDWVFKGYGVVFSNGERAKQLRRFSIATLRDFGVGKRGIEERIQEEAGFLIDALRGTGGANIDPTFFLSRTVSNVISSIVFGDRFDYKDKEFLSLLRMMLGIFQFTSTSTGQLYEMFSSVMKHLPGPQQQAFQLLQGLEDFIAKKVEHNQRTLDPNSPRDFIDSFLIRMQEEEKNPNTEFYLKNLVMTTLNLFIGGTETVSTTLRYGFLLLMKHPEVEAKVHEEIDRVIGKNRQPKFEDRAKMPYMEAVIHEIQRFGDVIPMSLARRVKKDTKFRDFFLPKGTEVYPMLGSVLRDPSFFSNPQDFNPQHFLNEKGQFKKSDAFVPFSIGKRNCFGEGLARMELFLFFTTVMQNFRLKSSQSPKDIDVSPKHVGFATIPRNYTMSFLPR

[3] = DRUGMATRIX: Glutamate, NMDA, Phencyclidine radioligand binding (ligand: [3H] TCP); type: cell membranes, Rattus norvegicus, Wistar, Cerebral cortex, Membrane; conditions: Not Active = under 50% inhibition at 10 µM
[4] = biological target: Mitogen-activated protein kinase 3 (Homo sapiens, UniProt P27361); test: DRUGMATRIX: Protein Serine/Threonine Kinase, ERK1 enzyme inhibition (substrate: Myelin Basic Protein); parameters: species or system Escherichia coli; conditions: Not Active = under 50% inhibition at 10 µM
Chain of Mitogen-activated protein kinase 3 (P27361 whole entry): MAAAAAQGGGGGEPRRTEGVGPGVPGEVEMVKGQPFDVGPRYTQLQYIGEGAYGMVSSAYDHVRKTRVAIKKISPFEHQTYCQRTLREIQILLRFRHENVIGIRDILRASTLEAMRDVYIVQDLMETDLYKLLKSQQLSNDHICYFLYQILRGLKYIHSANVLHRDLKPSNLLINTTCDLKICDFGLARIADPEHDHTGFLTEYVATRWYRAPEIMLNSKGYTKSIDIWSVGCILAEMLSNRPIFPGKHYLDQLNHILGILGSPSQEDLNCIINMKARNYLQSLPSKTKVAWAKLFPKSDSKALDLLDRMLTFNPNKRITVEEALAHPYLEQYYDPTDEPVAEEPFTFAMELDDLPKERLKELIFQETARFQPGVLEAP

Chain of Adenosine receptor A2a (P29274 whole entry): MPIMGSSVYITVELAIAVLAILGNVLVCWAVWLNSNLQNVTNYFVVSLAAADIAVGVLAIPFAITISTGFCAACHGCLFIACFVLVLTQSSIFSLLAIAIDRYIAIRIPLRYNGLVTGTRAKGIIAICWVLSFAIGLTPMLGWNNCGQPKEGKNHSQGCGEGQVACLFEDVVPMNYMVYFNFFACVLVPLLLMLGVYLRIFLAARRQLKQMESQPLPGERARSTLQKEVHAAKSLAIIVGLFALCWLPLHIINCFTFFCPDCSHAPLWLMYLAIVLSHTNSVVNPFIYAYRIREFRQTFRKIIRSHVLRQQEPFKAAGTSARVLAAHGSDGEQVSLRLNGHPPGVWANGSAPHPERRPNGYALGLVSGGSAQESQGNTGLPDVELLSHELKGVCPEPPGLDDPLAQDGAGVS

Row | Compound | IC50 (Adenosine receptor A2a; hek293) | IC50 ([1]; sf9) | IC50 [2] | Ki [2] | IC50 (Acetylcholinesterase; hek293) | IC50 (Cytochrome P450 2A6) | Ki (Cytochrome P450 2A6) | IC50 [3] | Ki [3] | IC50 [4] | IC50 ([1]; read-out: IC50) | Ki ([1]; read-out: Ki) | IC50 (Acetylcholinesterase; read-out: IC50) | Ki (Adenosine receptor A2a; hek293) | Ki ([1]; sf9) | Ki (Acetylcholinesterase; hek293) | Ki [4] | IC50 (Adenosine receptor A2a; read-out: IC50) | Ki (Adenosine receptor A2a; read-out: Ki)
1 | O=C1c2ccccc2C(=O)C1c1ccccc1 [PHENINDIONE] | Not Active | Not Active | Not Active | Not Active | Not Active | Not Active | Not Active | Not Active | Not Active | Not Active |  |  |  |  |  |  |  |  | 
2 | Clc1cc(Cl)c(OCC#CI)cc1Cl [HALOPROGIN] | Not Active |  | Not Active | Not Active | Not Active | Not Active | Not Active | Not Active | Not Active | Not Active | 1.22 µM | 0.458 µM |  |  |  |  |  |  | 
3 | C[C@H]1C[C@H]2[C@@H]3CCC4=CC(=O)C=C[C@]4(C)[C@@]3(F)[C@@H](O)C[C@]2(C)[C@@]1(O)C(=O)CO [BETAMETHASONE] | Not Active | Not Active | Not Active | Not Active | Not Active | Not Active | Not Active | Not Active | Not Active | Not Active |  |  |  |  |  |  |  |  | 
4 | COc1ccc(Cl)cc1C(=O)NCCc1ccc(S(=O)(=O)NC(=O)NC2CCCCC2)cc1 [GLYBURIDE] | Not Active | Not Active | Not Active | Not Active | Not Active | Not Active | Not Active | Not Active | Not Active | Not Active |  |  |  |  |  |  |  |  | 
5 | CC1(COc2ccc(CC3SC(=O)NC3=O)cc2)CCCCC1 (stereo not given) [CIGLITAZONE] | Not Active |  | Not Active | Not Active |  | Not Active | Not Active | Not Active | Not Active | Not Active | 16.6 µM | 6.21 µM | 15 µM |  |  |  |  |  | 
6 | Cc1ccnc2c1NC(=O)c1cccnc1N2C1CC1 [NEVIRAPINE] | Not Active | Not Active | Not Active | Not Active | Not Active | Not Active | Not Active | Not Active | Not Active | Not Active |  |  |  |  |  |  |  |  | 
7 | CNC[C@H](O)c1ccc(O)c(O)c1 [EPINEPHRINE] | Not Active |  | Not Active | Not Active | Not Active | Not Active | Not Active | Not Active | Not Active | Not Active |  |  |  |  |  |  |  |  | 
8 | CN(Cc1cc(Br)cc(Br)c1N)C1CCCCC1 [BROMHEXINE] | Not Active | Not Active | Not Active | Not Active | Not Active | Not Active | Not Active | Not Active | Not Active |  |  |  |  |  |  |  |  |  | 
9 | COPPER(II) OXIDE | Not Active | Not Active | Not Active | Not Active | Not Active | Not Active | Not Active | Not Active | Not Active | Not Active |  |  |  | Not Active | Not Active | Not Active | Not Active |  | 
10 | CCN1C[C@]2(COC)[C@H](O)C[C@H](OC)[C@@]34[C@@H]5C[C@@]6(O)[C@H](OC(=O)c7ccccc7)[C@@H]5[C@@](OC(C)=O)([C@@H]([C@H](OC)[C@H]23)[C@@H]14)[C@@H](O)[C@@H]6OC [ACONITINE] | Not Active | Not Active | Not Active | Not Active | Not Active | Not Active | Not Active | Not Active | Not Active | Not Active |  |  |  |  |  |  |  |  | 
11 | COc1ccc(C[C@H](N)C(=O)N[C@H]2[C@@H](O)[C@H](n3cnc4c(N(C)C)ncnc43)O[C@@H]2CO)cc1 [PUROMYCIN] | Not Active | Not Active | Not Active | Not Active | Not Active | Not Active | Not Active | Not Active | Not Active | Not Active |  |  |  |  |  |  |  |  | 
12 | OC[C@H]1OC2C3[C@@H](CO)OC(O[C@H]4[C@H](O)[C@@H](O)[C@@H](O[C@H]5[C@H](O)[C@@H](O)[C@@H](O[C@H]6[C@H](O)[C@@H](O)[C@@H](O[C@H]7[C@H](O)[C@@H](O)[C@@H](O[C@H]8[C@H](O)[C@@H](O)[C@@H](O[C@H]9[C@H](O)[C@@H](O)C(OC1[C@H](O)[C@H]2O)O[C@@H]9CO)O[C@@H]8CO)O[C@@H]7CO)O[C@@H]6CO)O[C@@H]5CO)O[C@@H]4CO)[C@H](O)[C@H]3O | Not Active | Not Active | Not Active | Not Active | Not Active | Not Active | Not Active | Not Active | Not Active | Not Active |  |  |  |  |  |  |  |  | 
13 | NC(N)=Nc1nc(CSCCC(N)=NS(N)(=O)=O)cs1 [FAMOTIDINE] | Not Active | Not Active | Not Active | Not Active | Not Active | Not Active | Not Active | Not Active | Not Active | Not Active |  |  |  |  |  |  |  |  | 
14 | C[N+](C)(C)CCOP(=O)([O-])OC[C@H](O)CO | Not Active | Not Active | Not Active | Not Active | Not Active | Not Active | Not Active | Not Active | Not Active | Not Active |  |  |  |  |  |  |  |  | 
15 | COc1cc(/C=C/C(=O)O)ccc1O [FERULATE] | Not Active | Not Active | Not Active | Not Active | Not Active | Not Active | Not Active | Not Active | Not Active | Not Active |  |  |  |  |  |  |  |  | 
16 | NC(=O)NC(=O)Cc1ccccc1 [PHENACEMIDE] | Not Active | Not Active | Not Active | Not Active | Not Active | Not Active | Not Active | Not Active | Not Active | Not Active |  |  |  |  |  |  |  |  | 
17 | NC(=O)CN1CCCC1=O | Not Active | Not Active | Not Active | Not Active | Not Active | Not Active | Not Active | Not Active | Not Active | Not Active |  |  |  |  |  |  |  |  | 
18 | CC(C)Cn1cnc2c(N)nc3ccccc3c21 [IMIQUIMOD] |  | Not Active | Not Active | Not Active | Not Active | Not Active | Not Active | Not Active | Not Active | Not Active |  |  |  |  |  |  |  | 5.32 µM | 2.99 µM
19 | CCO [ALCOHOL] | Not Active | Not Active | Not Active | Not Active | Not Active | Not Active | Not Active | Not Active | Not Active | Not Active |  |  |  |  |  |  |  |  | 
20 | O=C(O)CNCP(=O)(O)O [GLYPHOSATE] | Not Active | Not Active | Not Active | Not Active | Not Active |  |  | Not Active | Not Active | Not Active |  |  |  |  |  |  |  |  | 
21 | C[C@@H]1[C@H](O)[C@@H](C)/C=C/C=C/C=C/C=C/C=C/C=C/C=C/[C@H](O[C@@H]2O[C@H](C)[C@@H](O)[C@H](N)[C@@H]2O)C[C@@H]2O[C@](O)(C[C@@H](O)C[C@@H](O)[C@H](O)CC[C@@H](O)C[C@@H](O)CC(=O)O[C@H]1C)C[C@H](O)[C@H]2C(=O)O [AMPHOTERICIN B] | Not Active | Not Active | Not Active | Not Active | Not Active | Not Active | Not Active | Not Active | Not Active |  |  |  |  |  |  |  |  |  | 
22 | CC(CN1c2ccccc2Sc2ccccc21)N(C)C (stereo not given) [PROMETHAZINE] | Not Active |  | Not Active | Not Active | Not Active | Not Active | Not Active | Not Active | Not Active | Not Active |  |  |  |  |  |  |  |  | 
23 | Cc1cc(C(C)(C)C)c(O)c(C)c1CC1=NCCN1 [OXYMETAZOLINE] | Not Active |  | Not Active | Not Active | Not Active | Not Active | Not Active | Not Active | Not Active | Not Active |  |  |  |  |  |  |  |  | 
